Measurements reported in US20250388604A1, “Compounds and Their Use as PDE4 Activators” (Mironid Limited, priority 2022, published 2025).

System: m-IMCD3 cells
Experiment: Inhibition of PGE2-stimulated in vitro cyst formation in m-IMCD3 cells
Assay type: cell-based, mouse
Settings: Mus musculus, mIMCD3, 144 h, 3 μM; mean cyst area, 100% for (DMSO + PGE2) and 0% for DMSO control; 6 days of culture; read-out: % Cyst area after incubation with 3 μM test compound
Outline: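 m-IMCD3 cells embedded in collagen I/Matrigel 3D culture; 18–24 h after plating, compound (0.1% DMSO final) plus PGE2 (100 nM final) added, replenished after 2 or 3 days. After 6 days, z-stack imaging gave mean cyst area, normalized to DMSO+PGE2 (100%) and DMSO (0%).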

How did the activity at 3 µM turn out when `Cc1cccc(C(=O)N2CCc3nc(N4C5CCC4CNC5)sc3C2)c1` [Example 195, (2-(3,8-diazabicyclo[3.2.1]octan-8-yl)-6,7-dihydrothiazolo[5,4-c]pyridin-5(4H)-yl)(m-tolyl)methanone] was run?
The activity at 3 µM was 1%.

For `O=C(C1CCc2ccccc2O1)N1CCc2nc(N3C4CCC3CNC4)sc2C1` (stereo not drawn) [Example 181, (2-(3,8-diazabicyclo[3.2.1]octan-8-yl)-6,7-dihydrothiazolo[5,4-c]pyridin-5(4H)-yl)(chroman-2-yl)methanone], which activity at 3 µM is on record?
Its activity at 3 µM is 5%.

For `O=C(c1cccc(C(F)F)c1)N1CCc2nc(N3C4CCC3CNC4)sc2C1` [Example 199, (2-(3,8-diazabicyclo[3.2.1]octan-8-yl)-6,7-dihydrothiazolo[5,4-c]pyridin-5(4H)-yl)(3-(difluoromethyl)phenyl)methanone], which activity at 3 µM is on record?
Its activity at 3 µM is 3%.

How did the activity at 3 µM turn out when `O=C(CC12CCC(CC1)C2)N1CCc2nc(N3C4CCC3CNC4)sc2C1` [Example 160, 1-(2-(3,8-diazabicyclo[3.2.1]octan-8-yl)-6,7-dihydrothiazolo[5,4-c]pyridin-5(4H)-yl)-2-(bicyclo[2.2.1]heptan-1-yl)ethan-1-one] was run?
Its activity at 3 µM is -2%.

For `O=C(Cc1ccc(F)nc1)N1CCc2nc(N3C4CCC3CNC4)sc2C1` [Example 165, 1-(2-(3,8-diazabicyclo[3.2.1]octan-8-yl)-6,7-dihydrothiazolo[5,4-c]pyridin-5(4H)-yl)-2-(6-fluoropyridin-3-yl)ethan-1-one], which activity at 3 µM is on record?
Its activity at 3 µM is 2%.

For `O=C(C1COc2ccccc2C1)N1CCc2nc(N3C4CCC3CNC4)sc2C1` (stereo not drawn) [Example 182, (2-(3,8-diazabicyclo[3.2.1]octan-8-yl)-6,7-dihydrothiazolo[5,4-c]pyridin-5(4H)-yl)(chroman-3-yl)methanone], which activity at 3 µM is on record?
Its activity at 3 µM is 1%.

`O=C(c1ccccc1)N1CCc2nc(N3C4CCC3CNC4)sc2C1` [Example 193, (2-(3,8-diazabicyclo[3.2.1]octan-8-yl)-6,7-dihydrothiazolo[5,4-c]pyridin-5(4H)-yl)(phenyl)methanone] was tested. Which activity at 3 µM did it give?
The activity at 3 µM was -1%.

How did the activity at 3 µM turn out when `COc1cccc(C#N)c1OCC(=O)N1CCc2nc(N3C4CCC3CNC4)sc2C1` [Example 168, 2-(2-(2-(3,8-diazabicyclo[3.2.1]octan-8-yl)-6,7-dihydrothiazolo[5,4-c]pyridin-5(4H)-yl)-2-oxoethoxy)-3-methoxybenzonitrile] was run?
Its activity at 3 µM is -3%.

How did the activity at 3 µM turn out when `CCC(C)(C)CC(=O)N1CCc2nc(N3C4CCC3CNC4)sc2C1` [Example 174, 1-(2-(3,8-diazabicyclo[3.2.1]octan-8-yl)-6,7-dihydrothiazolo[5,4-c]pyridin-5(4H)-yl)-3,3-dimethylpentan-1-one] was run?
Its activity at 3 µM is 3%.

`O=C([C@@H](O)C1CCCC1)N1CCc2nc(N3C4CCC3CNC4)sc2C1` [Example 170, (2S)-1-(2-(3,8-diazabicyclo[3.2.1]octan-8-yl)-6,7-dihydrothiazolo[5,4-c]pyridin-5(4H)-yl)-2-cyclopentyl-2-hydroxyethan-1-one] was tested. Which activity at 3 µM did it give?
The activity at 3 µM was 5%.

`COC(C(=O)N1CCc2nc(N3C4CCC3CNC4)sc2C1)C1(C)CCCC1` (stereo not drawn) [Example 249, 1-(2-(3,8-diazabicyclo[3.2.1]octan-8-yl)-6,7-dihydrothiazolo[5,4-c]pyridin-5(4H)-yl)-2-methoxy-2-(1-methylcyclopentyl)ethan-1-one] was tested. Which activity at 3 µM did it give?
The activity at 3 µM was -5%.

How did the activity at 3 µM turn out when `O=C(c1cc2ccccc2cn1)N1CCc2nc(N3C4CCC3CNC4)sc2C1` [Example 192, (2-(3,8-diazabicyclo[3.2.1]octan-8-yl)-6,7-dihydrothiazolo[5,4-c]pyridin-5(4H)-yl)(isoquinolin-3-yl)methanone] was run?
The activity at 3 µM was 1%.

`O=C(C1COc2ccccc2O1)N1CCc2nc(N3C4CCC3CNC4)sc2C1` (stereo not drawn) [Example 180, (2-(3,8-diazabicyclo[3.2.1]octan-8-yl)-6,7-dihydrothiazolo[5,4-c]pyridin-5(4H)-yl)(2,3-dihydrobenzo[b][1,4]dioxin-2-yl)methanone] was tested. Which activity at 3 µM did it give?
The activity at 3 µM was 2%.

How did the activity at 3 µM turn out when `O=C(CC1CCCC1)N1CCc2nc(N3CCN4CCC[C@@H]4C3)sc2C1` [Example 272, (R)-2-cyclopentyl-1-(2-(hexahydropyrrolo[1,2-a]pyrazin-2(1H)-yl)-6,7-dihydrothiazolo[5,4-c]pyridin-5(4H)-yl)ethan-1-one] was run?
Its activity at 3 µM is 16%.

Which activity at 3 µM does the source give for `CC(C)(C#N)CC(=O)N1CCc2nc(N3C4CCC3CNC4)sc2C1` [Example 178, 4-(2-(3,8-diazabicyclo[3.2.1]octan-8-yl)-6,7-dihydrothiazolo[5,4-c]pyridin-5(4H)-yl)-2,2-dimethyl-4-oxobutanenitrile] here?
The activity at 3 µM was 24%.

With `CC(C)C(O)C(=O)N1Cc2sc(N3C4CCC3CNC4)nc2C(C)(C)C1` (stereo not drawn) [Example 259, 1-(2-(3,8-diazabicyclo[3.2.1]octan-8-yl)-7,7-dimethyl-6,7-dihydrothiazolo[5,4-c]pyridin-5(4H)-yl)-2-hydroxy-3-methylbutan-1-one] as the compound, how does the activity at 3 µM read?
Its activity at 3 µM is -6%.

For `O=C(c1ccc(C(F)F)cc1)N1CCc2nc(N3C4CCC3CNC4)sc2C1` [Example 229, (2-(3,8-diazabicyclo[3.2.1]octan-8-yl)-6,7-dihydrothiazolo[5,4-c]pyridin-5(4H)-yl)(4-(difluoromethyl)phenyl)methanone], which activity at 3 µM is on record?
The activity at 3 µM was -1%.

Same assay, conditions: Mus musculus, mIMCD3, 144 h, 10 μM; mean cyst area, 100% for (DMSO + PGE2) and 0% for DMSO control; 6 days of culture; read-out: % Cyst area after incubation with 10 μM test compound

How did the activity at 10 µM turn out when `CC(C)C(=O)N1CCc2nc(N3C4CCC3CNC4)sc2C1` [Example 20, 1-(2-(3,8-diazabicyclo[3.2.1]octan-8-yl)-6,7-dihydrothiazolo[5,4-c]pyridin-5(4H)-yl)-2-methylpropan-1-one] was run?
The activity at 10 µM was 9%.

How did the activity at 10 µM turn out when `CN1CC2CCC(C1)N2c1nc2c(s1)CN(C(=O)CC1CCCC1)CC2(C)C` [Example 102, 2-cyclopentyl-1-(7,7-dimethyl-2-(3-methyl-3,8-diazabicyclo[3.2.1]octan-8-yl)-6,7-dihydrothiazolo[5,4-c]pyridin-5(4H)-yl)ethan-1-one] was run?
Its activity at 10 µM is -3%.

Which activity at 10 µM does the source give for `O=C(NC1CCC(F)(F)CC1)N1CCn2nc(N3C4CCC3CNC4)cc2C1` [Example 70, 2-(3,8-diazabicyclo[3.2.1]octan-8-yl)-N-(4,4-difluorocyclohexyl)-6,7-dihydropyrazolo[1,5-a]pyrazine-5(4H)-carboxamide] here?
Its activity at 10 µM is 7%.

How did the activity at 10 µM turn out when `O=C(NCc1ccc(F)cc1)N1CCc2nc(N3C4CCC3CNC4)sc2C1` [Example 55, 2-(3,8-diazabicyclo[3.2.1]octan-8-yl)-N-(4-fluorobenzyl)-6,7-dihydrothiazolo[5,4-c]pyridine-5(4H)-carboxamide] was run?
Its activity at 10 µM is 0%.

With `O=C(COc1ccc(F)cc1F)N1CCc2nc(N3C4CCC3CNC4)sc2C1` [Example 148, 1-(2-(3,8-diazabicyclo[3.2.1]octan-8-yl)-6,7-dihydrothiazolo[5,4-c]pyridin-5(4H)-yl)-2-(2,4-difluorophenoxy)ethan-1-one] as the compound, how does the activity at 10 µM read?
Its activity at 10 µM is 3%.

Which activity at 10 µM does the source give for `O=C(Cc1ccc(F)cc1)N1CCc2nc(N3C4CCC3CNC4)sc2C1` [Example 25, 1-(2-(3,8-diazabicyclo[3.2.1]octan-8-yl)-6,7-dihydrothiazolo[5,4-c]pyridin-5(4H)-yl)-2-(4-fluorophenyl)ethan-1-one] here?
The activity at 10 µM was 6%.

How did the activity at 10 µM turn out when `CC1(NC(=O)N2CCc3nc(N4C5CCC4CNC5)sc3C2)CCCC1` [Example 125, 2-(3,8-diazabicyclo[3.2.1]octan-8-yl)-N-(1-methylcyclopentyl)-6,7-dihydrothiazolo[5,4-c]pyridine-5(4H)-carboxamide] was run?
The activity at 10 µM was -11%.

Which activity at 10 µM does the source give for `Cc1cc(CC(=O)N2CCc3nc(N4C5CCC4CNC5)sc3C2)cc(C)n1` [Example 153, 1-(2-(3,8-diazabicyclo[3.2.1]octan-8-yl)-6,7-dihydrothiazolo[5,4-c]pyridin-5(4H)-yl)-2-(2,6-dimethylpyridin-4-yl)ethan-1-one] here?
Its activity at 10 µM is 31%.

`O=C(CC1CCC(F)(F)C1)N1CCc2nc(N3C4CCC3CNC4)sc2C1` (stereo not drawn) [Example 137, 1-(2-(3,8-diazabicyclo[3.2.1]octan-8-yl)-6,7-dihydrothiazolo[5,4-c]pyridin-5(4H)-yl)-2-(3,3-difluorocyclopentyl)ethan-1-one] was tested. Which activity at 10 µM did it give?
The activity at 10 µM was -4%.

How did the activity at 10 µM turn out when `CC(C)(C(=O)N1CCc2nc(N3C4CCC3CNC4)sc2C1)C(F)(F)F` [Example 32, 1-(2-(3,8-diazabicyclo[3.2.1]octan-8-yl)-6,7-dihydrothiazolo[5,4-c]pyridin-5(4H)-yl)-3,3,3-trifluoro-2,2-dimethylpropan-1-one] was run?
The activity at 10 µM was 1%.

With `O=C(COc1ccc(F)cc1)N1CCc2nc(N3CCNCC3)sc2C1` [Example 110, 2-(4-fluorophenoxy)-1-(2-(piperazin-1-yl)-6,7-dihydrothiazolo[5,4-c]pyridin-5(4H)-yl)ethan-1-one] as the compound, how does the activity at 10 µM read?
Its activity at 10 µM is -5%.

For `O=C(CC1CCCC1)N1CCc2nc(N3CCN[C@@H](CO)C3)sc2C1` [Example 117, (R)-2-cyclopentyl-1-(2-(3-(hydroxymethyl)piperazin-1-yl)-6,7-dihydrothiazolo[5,4-c]pyridin-5(4H)-yl)ethan-1-one], which activity at 10 µM is on record?
The activity at 10 µM was 1%.

For `O=C(N1CCc2nc(N3C4CCC3CNC4)sc2C1)N1CCC2(CCC2)C1` [Example 123, (2-(3,8-diazabicyclo[3.2.1]octan-8-yl)-6,7-dihydrothiazolo[5,4-c]pyridin-5(4H)-yl)(6-azaspiro[3.4]octan-6-yl)methanone], which activity at 10 µM is on record?
The activity at 10 µM was -4%.

`O=C(N1CCc2nc(N3C4CCC3CNC4)sc2C1)N1CCC2(CCCC2)C1` [Example 122, (2-(3,8-diazabicyclo[3.2.1]octan-8-yl)-6,7-dihydrothiazolo[5,4-c]pyridin-5(4H)-yl)(2-azaspiro[4.4]nonan-2-yl)methanone] was tested. Which activity at 10 µM did it give?
Its activity at 10 µM is -8%.

With `O=C(Cc1ccnc(F)c1)N1CCc2nc(N3C4CCC3CNC4)sc2C1` [Example 141, 1-(2-(3,8-diazabicyclo[3.2.1]octan-8-yl)-6,7-dihydrothiazolo[5,4-c]pyridin-5(4H)-yl)-2-(2-fluoropyridin-4-yl)ethan-1-one] as the compound, how does the activity at 10 µM read?
The activity at 10 µM was -7%.

`COC1(CC(=O)N2CCc3nc(N4C5CCC4CNC5)sc3C2)CCCC1` [Example 134, 1-(2-(3,8-diazabicyclo[3.2.1]octan-8-yl)-6,7-dihydrothiazolo[5,4-c]pyridin-5(4H)-yl)-2-(1-methoxycyclopentyl)ethan-1-one] was tested. Which activity at 10 µM did it give?
The activity at 10 µM was -4%.
